Assay results reported in patent US11098102B2, “Insulin conjugates” (SANOFI, priority 2018, dated 2021).

target: T1, immobilized human serum albumin (Homo sapiens, UniProt P02768); experiment: Albumin binding: affinity chromatography on columns with immobilized human serum albumin (net retention time); conditions: isolated binders; HSA column 25° C., PBS pH 7.4/isopropanol gradient
T1 construct: purchased Chiralpak (Chiraltech) 34712
Method: In order to identify suitable binder molecules, which when bound to a peptide, such as an insulin, are able to improve the half-life in plasma and to prolong the profile of action, a system was established based on affinity chromatography with serum albumin columns, i.e. columns with immobilized serum albumin.
The net retention time of the binders (samples) was calculated according to the following formula: Net retention time=RetTimeSample−RetTimet0 marker
• Instrument: Waters Alliance 2795/Waters PDA 2996 or Waters H-Class UPLC equipped with a Waters Acquity photodiode-array detector • Software: Waters Empower 3 • Column: […]® HSA 50×4 mm; 5 μm Particle size • Chiraltech Order Numbers: HSA: 34712 • Eluent A: Phosphate Buffer saline (PBS) at pH=7.4 • Gibco PBS pH7.4 (10×) Phosphate Buffered Saline 500 ml; • Order Number: 70011-036 (500 ml) • Eluent B: Isopropanol • Fisher Order Number: A461-1 (10 • Gradient:
• Column temperature: 25° C. • Flow rate: 1.0 ml/min • Detection: λ=220 nm • Injection volume: 20 μL • Sample Conc.: 1 mg/ml insulin solution in PBS for insulin samples • 5 μL of 10 mM DMSO stock solution (DMSO evaporated and re-dissolved in 200 μL i-propanol/water 1:1 v/v) for isolated binder samples (250 μM, 0.2 mg/ml at 800 Da MolWeight) • t0 marker Sodium Nitrate (NaNO3) solution in water, 0.05 mg/ml • Diluted from aqueous 1 mg/ml stock solution (Fluka Order Number: 74246-100ML) • Reported Value Net retention time of sample: RetTime Sample−RetTime t0 marker
Affinity chromatography was carried out i) for insulin conjugates according to Examples 3.3 and 3.4 on a Waters Alliance Separation Module 2695 equipped with a Waters photodiode-array detector 2996 or Waters H-Class UPLC equipped with a Waters Acquity photodiode-array detector and ii) for isolated binders according to Example 2.11 on a Waters Alliance Separation Module 2795 equipped with a Waters photodiode-array detector 2996 or Waters H-Class UPLC equipped with a Waters Acquity photodiode-array detector.
Columns with immobilized human serum albumin (50×4 mm; 5 μm particle size) were purchased from Chiralpak and used for separations.
The columns with immobilized serum albumin were kept at 25° C. during the LC run, UV detection was carried out at 220 nm and injection volume was 20 μL.
The net retention time of the samples was reported according to Net retention time=RetTime Sample−RetTime t0 marker

T1 sequence (P02768 25-609): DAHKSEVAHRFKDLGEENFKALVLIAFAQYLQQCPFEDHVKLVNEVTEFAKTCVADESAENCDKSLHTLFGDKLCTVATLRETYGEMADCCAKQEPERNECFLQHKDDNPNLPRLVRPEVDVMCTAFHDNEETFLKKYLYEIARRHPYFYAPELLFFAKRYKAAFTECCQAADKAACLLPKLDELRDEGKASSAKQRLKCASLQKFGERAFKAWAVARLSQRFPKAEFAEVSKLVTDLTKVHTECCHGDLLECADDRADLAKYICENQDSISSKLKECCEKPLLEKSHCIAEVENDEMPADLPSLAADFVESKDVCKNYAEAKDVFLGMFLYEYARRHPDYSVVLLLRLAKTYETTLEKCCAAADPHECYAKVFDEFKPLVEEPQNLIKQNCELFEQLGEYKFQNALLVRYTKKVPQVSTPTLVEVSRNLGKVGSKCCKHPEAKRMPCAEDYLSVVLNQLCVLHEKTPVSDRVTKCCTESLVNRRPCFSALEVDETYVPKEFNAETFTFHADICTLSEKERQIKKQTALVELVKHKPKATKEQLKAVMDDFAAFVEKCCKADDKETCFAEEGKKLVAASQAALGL

Compound	NRT [min] (net retention time on columns with immobilized human serum albumin)
O=C(O)CCCCCCCCCCCCCCOc1ccc(S(=O)(=O)Nc2ncc(C(=O)NCCOCCOCC(=O)NCCOCCOCC(=O)O)cn2)cc1 [Binder 5]	14.32
O=C(O)CCCCCCCCCCCCCCCCCOc1ccc(S(=O)(=O)Nc2ccc(C(=O)NCCOCCOCC(=O)NCCOCCOCC(=O)O)cn2)cc1 [Binder 70]	14.26
O=C(O)CCCCCCCCCCCCCCCOc1ccc(S(=O)(=O)Nc2ncc(C(=O)NCCOCCOCC(=O)NCCOCCOCC(=O)O)cn2)cc1Cl [Binder 50]	13.74
O=C(O)CCCCCCCc1ccc(CCOc2ccc(S(=O)(=O)Nc3ccc(C(=O)NCCOCCOCC(=O)NCCOCCOCC(=O)O)cn3)cc2)cc1 [Binder 46]	14.48
O=C(O)CCCCCCCCCCCCCCCCCc1cccc(S(=O)(=O)Nc2ncc(C(=O)NCCOCCOCC(=O)NCCOCCOCC(=O)O)cn2)c1 [Binder 55]	15.01
O=C(O)CCCCCCCCCCCCCCOc1ccc(S(=O)(=O)Nc2ccc(C(=O)NCCOCCOCC(=O)NCCOCCOCC(=O)O)cn2)cc1 [Binder 9]	14.01
O=C(O)CCCCCCCCCCCCCCCOc1cc(Cl)c(S(=O)(=O)Nc2ncc(C(=O)NCCOCCOCC(=O)NCCOCCOCC(=O)O)cn2)cc1Cl [Binder 72]	13.96
O=C(O)CCCCCCCCCCCCCCCCCCCOc1ccc(S(=O)(=O)Nc2ccc(C(=O)NCCOCCOCC(=O)NCCOCCOCC(=O)O)cn2)cc1 [Binder 71]	14.42

Results, then the molecule that gave them:

NRT [min] (net retention time on columns with immobilized human serum albumin)	Compound
15.19	O=C(O)CCCCCCCCCCCCCCCc1ccc(S(=O)(=O)Nc2ncc(C(=O)NCCOCCOCC(=O)NCCOCCOCC(=O)O)cn2)cc1 [Binder 54]
11.36	O=C(O)CCCCCCCc1ccc(CCOc2ccc(S(=O)(=O)Nc3ccc(C(=O)NCCOCCOCC(=O)NCCOCCOCC(=O)O)cn3)cc2)cc1 [Binder 43]
15.47	O=C(O)CCCCCCCCCCCCCCCc1ccc(S(=O)(=O)Nc2ccc(C(=O)NCCOCCOCC(=O)NCCOCCOCC(=O)O)cn2)cc1 [Binder 59]
14.98	O=C(O)CCCCCCCCCCCCCCCCCc1cccc(S(=O)(=O)Nc2ncc(C(=O)NCCOCCOCC(=O)NCCOCCOCC(=O)O)cn2)c1 [Binder 41]
13.73	Cc1nc(NS(=O)(=O)c2ccc(OCCCCCCCCCCCCCCCC(=O)O)cc2)ncc1C(=O)NCCOCCOCC(=O)NCCOCCOCC(=O)O [Binder 47]
10.99	O=C(O)CCCCCCCCCc1ccc(S(=O)(=O)Nc2ccc(C(=O)NCCOCCOCC(=O)NCCOCCOCC(=O)O)cn2)cc1 [Binder 67]
13.42	O=C(O)CCCCCCCc1cc(Oc2ccc(S(=O)(=O)Nc3ncc(C(=O)NCCOCCOCC(=O)NCCOCCOCC(=O)O)cn3)cc2)ccc1F [Binder 63]
14.24	O=C(O)CCCCCCCCCCCCCCCCCOc1ccc(S(=O)(=O)Nc2ncc(C(=O)NCCOCCOCC(=O)NCCOCCOCC(=O)O)cn2)cc1 [Binder 69]
16.76	O=C(O)CCCCCCCCCc1ccc(OCc2ccc(S(=O)(=O)Nc3ncc(C(=O)NCCOCCOCC(=O)NCCOCCOCC(=O)O)cn3)cc2)cc1 [Binder 1]
13.59	O=C(O)CCCCCCCCCCCCCCCOc1ccc(S(=O)(=O)Nc2ccc(C(=O)NCCOCCOCC(=O)NCCOCCOCC(=O)O)cn2)cc1Cl [Binder 51]
13.8	O=C(O)CCCCCCCCCCCCCCCOc1ccc(S(=O)(=O)Nc2ncc(C(=O)NCCOCCOCC(=O)NCCOCCOCC(=O)O)c(C(F)(F)F)n2)cc1 [Binder 45]
